{
  "source": "patent US4117118A",
  "about": "“Organic compounds” (Sandoz Ltd., priority 1976, dated 1978)",
  "key": {"[1]": {"details": "amorphous form", "text": "Behaviour in the thin layer chromatogram (substance spots made visible with iodine vapour): […]"}, "Aspergillus niger": {"tested_on": "Aspergillus niger", "details": "standard tests"}},
  "data": [
    {"smiles": "C/C=C/C[C@@H](C)[C@@H](O)[C@H]1C(=O)N[C@@H](C)C(=O)N(C)CC(=O)N(C)[C@@H](CC(C)C)C(=O)N[C@@H](C(C)C)C(=O)N(C)[C@@H](CC(C)C)C(=O)N[C@@H](C)C(=O)N[C@H](C)C(=O)N(C)[C@@H](CC(C)C)C(=O)N(C)[C@@H](CC(C)C)C(=O)N(C)[C@@H](C(C)C)C(=O)N1C", "note": "[S 7481/F-2, Cyclosporin B]", "values": [
      {"measurement": "Solubility in most of the usual organic solvents", "setting": "[1]", "value": "readily soluble"},
      {"measurement": "Solubility in petroleum ether and water", "setting": "[1]", "value": "practically insoluble"},
      {"measurement": "Inhibition of the growth of Aspergillus niger", "setting": "Aspergillus niger", "value": "inhibition of the growth"}
    ]}
  ]
}
